Measurements reported in publication PMC12314183, “RM2 and DB15 analogues bearing [^177Lu]Lu-DOTAGA via different linkers, as radiotherapeutics: a head-to-head comparative study” (EJNMMI Radiopharmacy and Chemistry, 2025).

Columns and labels:
[1] = system: PC-3 xenograft bearing mice; parameters: AUC Kidneys: unit not given beside the values; settings: mouse, in vivo
GRPR = molecular target: T1, GRPR (Homo sapiens, UniProt P30550); experiment: Receptor affinity and kinetics by LigandTracer on living PC-3 cells; type: binding
T1 construct: host or cells: PC-3 (human prostate cancer cell line)
Procedure: Receptor affinity was measured using a LigandTracer yellow (Ridgeview Instruments AB, Uppsala, Sweden). For each measurement 3 million PC-3 cells were seeded in 100 mm dishes (Corning St. Oneonta, N.Y., USA) the day before the experiment. Three concentrations for each radioligand were tested (1, 3 and 5 nM) in order to determine the association values. After reaching plateau, the media containing the radioligands were removed, fresh complete media were introduced in the plates and the dissociation phase was measured overnight.

[2] = system: PC-3 xenograft bearing mice; experiment: Biodistribution in PC-3 xenograft bearing mice; settings: mouse, in vivo
Procedure: The biodistribution profile for the four radioligands was determined in female Balb/c nu/nu mice. All the animals were subcutaneously implanted with a suspension of 8 × 10^6 PC-3 cells in the right hind leg. After approximately 3–4 weeks, tumours were developed and animals were randomized in groups of four (with the exception of the Block groups comprising instead 3 animals). For each radioligand 3 groups were used, namely, 4 h, 23 h pi and 4 h Block. Each animal received 2.82 mg of sacubitril (in the form of 12 mg of an Entresto pill suspension) per os and after 30 min, a bolus iv injection of 100–110 kBq of [^177Lu]Lu-peptide (corresponding to 100 pmol total peptide). Animals were euthanized at the predetermined time points and tissues of interest and xenografts were collected, weighted and their activity content was measured in the gamma counter. […] Statistical analysis was performed using GraphPad Prism 10 and a two-way ANOVA with Tuckey’s post hock analysis. Area under curve for kidneys and tumours was estimated by fitting a one-phase decay model and calculating the area under the resulting equation.

tumours = settings: ref Dumont et al. [2013], cited from earlier work
Excerpt: For [^177Lu]Lu-RM2 (Dumont et al. [2013]), the reported dose per animal was 250 pmol peptide corresponding to 4.63 MBq.

[3] = 5 min pi, ref Nock et al. [2017]; cited from earlier work
Excerpt: (§1) In comparison with [^177Lu]Lu-NeoBomb1 (Dalm et al. [2017]; Nock et al. [2017]), [^177Lu]Lu-AU-SAR-M1 utilizes a different chelator (DOTAGA for AU-SAR-M1 and DOTA for NeoBomb1).

[4] = system: PC-3 xenograft bearing mice; settings: 4 h pi, ref Dalm et al. [2017], cited from earlier work
Excerpt: as §1

[5] = living PC-3 cells, 1:1 model used (footnote)

T1 sequence (P30550 whole entry): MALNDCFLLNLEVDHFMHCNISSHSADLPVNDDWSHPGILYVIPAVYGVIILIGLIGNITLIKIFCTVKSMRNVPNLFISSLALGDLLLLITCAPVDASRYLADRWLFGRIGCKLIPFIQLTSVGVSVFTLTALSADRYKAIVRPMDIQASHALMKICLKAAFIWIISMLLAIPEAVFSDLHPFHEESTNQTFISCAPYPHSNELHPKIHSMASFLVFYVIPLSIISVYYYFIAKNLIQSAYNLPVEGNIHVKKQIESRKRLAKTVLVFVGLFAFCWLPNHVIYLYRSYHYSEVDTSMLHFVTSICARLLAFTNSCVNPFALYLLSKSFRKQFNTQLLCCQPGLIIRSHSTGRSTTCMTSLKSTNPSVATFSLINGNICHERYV

CC(C)C[C@H](NC(=O)C[C@H](O)[C@H](CC(C)C)NC(=O)[C@H](Cc1c[nH]cn1)NC(=O)CN(C)C(=O)[C@@H](NC(=O)[C@H](C)NC(=O)[C@H](Cc1c[nH]c2ccccc12)NC(=O)[C@H](CCC(N)=O)NC(=O)[C@@H](Cc1ccccc1)NC(=O)CN1CCC(NC(=O)COCCOCCNC(=O)CCC(C(=O)O)N2CCN(CC(=O)O)CCN(CC(=O)O)CCN(CC(=O)O)CC2)CC1)C(C)C)C(N)=O (some centres unmarked) [[^177Lu]Lu-AU-RM26-M2, DOTAGA-PEG2-Pip-[NMe-Gly^11]RM26, metal not drawn]
AUC Kidneys [1]: 56
AUC Tumour [1]: 62

CCNC(=O)[C@H](CC(C)C)NC(=O)[C@H](Cc1c[nH]cn1)NC(=O)CN(C)C(=O)[C@@H](NC(=O)[C@H](C)NC(=O)[C@H](Cc1c[nH]c2ccccc12)NC(=O)[C@H](CCC(N)=O)NC(=O)[C@@H](Cc1ccccc1)NC(=O)COCC(=O)Nc1ccc(CNC(=O)CCC(C(=O)O)N2CCN(CC(=O)O)CCN(CC(=O)O)CCN(CC(=O)O)CC2)cc1)C(C)C (some centres unmarked) [[^177Lu]Lu-AU-SAR-M1, DOTAGA-AMA-DIG-SAR, metal not drawn]
ka1 (GRPR; living PC-3 cells, 1, 3 and 5 nM, 1:2 model): 65700 M⁻¹ s⁻¹
ka2 (GRPR; living PC-3 cells, 1:2 model): 614000 M⁻¹ s⁻¹
kd1 (GRPR; living PC-3 cells, 1:2 model): 1.76 × 10^–6 s^−1
kd2 (GRPR; living PC-3 cells, 1:2 model): 7.43 × 10^–4 s^−1
tumour-to-kidney ratio for the estimated AUC, times better than the next candidate [2]: 1.4 times
AUC Kidneys [1]: 45
AUC Tumour [1]: 242
AUC ratio Tumour/Kidneys [1]: 5.4

CCNC(=O)[C@H](CC(C)C)NC(=O)[C@H](Cc1c[nH]cn1)NC(=O)CN(C)C(=O)[C@@H](NC(=O)[C@H](C)NC(=O)[C@H](Cc1c[nH]c2ccccc12)NC(=O)[C@H](CCC(N)=O)NC(=O)[C@@H](Cc1ccccc1)NC(=O)COCC(=O)Nc1ccc(CNC(=O)[C@H](CCCNC(=N)N)NC(=O)CCC(C(=O)O)N2CCN(CC(=O)O)CCN(CC(=O)O)CCN(CC(=O)O)CC2)cc1)C(C)C (some centres unmarked) [[^177Lu]Lu-AU-SAR-M2, DOTAGA-Arg-AMA-DIG-SAR, metal not drawn]
ka1 (GRPR; [5]): 90900 M⁻¹ s⁻¹
kd1 (GRPR; [5]): 6.44 × 10^–7 s^−1
AUC Kidneys [1]: 68
AUC Tumour [1]: 259
AUC ratio Tumour/Kidneys [1]: 3.8
Tumour-to-Kidneys AUC ratio, fold higher than [^177Lu]Lu-AU-RM26-M4 [1]: 1.6 fold
Tumour-to-Kidneys AUC ratio, fold higher than [^177Lu]Lu-AU-SAR-M1 [1]: 1.4 fold

DOTA-4-amino-1-carboxymethyl-piperidine-DPhe-Gln-Trp-Ala-Val-Gly-His-Sta-Leu-NH2 [[^177Lu]Lu-RM2]
tumour uptake (tumours; 4 h pi, 250 pmol peptide, 4.63 MBq): 10.97 ± 0.99 %IA/g
activity uptake in pancreas (tumours; 4 h pi): 0.70 ± 0.12 %IA/g
activity remaining in the tumours (tumours; 24 h pi relative to 4 h pi): approximately 50%

DOTA-AMA-DIG-DPhe-Gln-Trp-Ala-Val-Gly-His-NHCH[(CH2-CH(CH3)2]2 [[^177Lu]Lu-NeoBomb1, Lu-177-based GRPR-antagonist already tested in patients]
intact peptide detected in mice circulation [3]: 95%
tumour values ([4]; PC-3 xenograft bearing mice, 200 pmol – 1 MBq): 17.9 ± 3.3 %IA/g
kidneys uptake [4]: 2.5%
